Laboratory results taken from publication PMC9538480, “Rutin bioconjugates as potential nutraceutical prodrugs: An in vitro and in ovo toxicological screening” (Frontiers in Pharmacology, 2022).
≈ marks a conversion by molar mass, not a printed value.

Key:
[1] = in vitro; format: cell-based, human; details: human
Method: (§1) To evaluate the in vitro effect of rutin esters (REs) on cells’ viability, the MTT technique was applied following a 24 h treatment of H9c2(2-1), HepaRG, and HaCaT cells with RUT-O and RUT-L (1, 10, 25, 50, and 100 µM). The parent compounds (PCs)—RUT, OA, and LA were also tested. DMSO was used as solvent for all test compounds (RUT, OA, LA, RUT-O, and RUT-L). The impact of DMSO at tested concentrations (1, 10, 25, 50, and 100 µM) was also assessed in vitro. At the end of the treatment, fresh media (100 µl) and the MTT reagent (10 µl) were added in each well, and the plates were incubated for 3 h at 37°C. The final steps were as follows: addition of the solubilization solution (100 µl/well), incubation of the plates at room temperature for 30 min, protected from light, and absorbance measurement at two wavelengths (570 and 630 nm) using Cytation 5 (BioTek Instruments Inc., Winooski, VT, United States). The results were expressed as percentage (%) of viable cells normalized to control cells (unstimulated cells).

[2] = system: chorioallantoic membrane; assay: HET-CAM in ovo irritant potential; format: in vivo, Gallus domesticus; details: for vascular irritation signs (hemorrhage, lysis, coagulation) in words: 5 min after application; for tC = time of coagulation / tH = time of hemorrage / tL = time of lysis / Irritation score (IS): test compounds 100 µM, 5 min observation; for Irritation score (IS): 600 μl
Method: To perform a toxicological screening and to verify the irritant potential of the RUT-O and RUT-L were used chicken eggs (Gallus domesticus). Specifically, the eggs were prepared as follows: 1) after being washed and disinfected with 70% ethanol (v/v), the eggs were placed in an incubator in a horizontal posture; 2) on the fourth day of incubation, a small hole was made through which a volume of approximately 7–8 ml of albumen was extracted in order to facilitate the detachment of the chorioallantoic membrane from the inner shell of the egg; 3) on the fifth day of incubation, a window was cut in the upper part of the egg to allow the visualization of the blood vessels, which was then covered with adhesive tape and the eggs were placed in the incubator until the day of the beginning of the experiment. Using the Hen’s Egg Test—Chorioallantoic Membrane (HET-CAM) assay, the potential in ovo toxicity of the samples was evaluated. […] [Kis et al., 2022]). […] In order to observe any vascular effects, a stereomicroscope (Discovery 8 Stereomicroscope Zeiss, Göttingen, and Germany) was used, and images were taken with a Zeiss Axio CAM 105 color camera before and 5 min after the application of the samples. The same experimental protocol was applied for the parent compounds—RUT, OA, and LA.

[3] = system: H9c2(2-1), HaCaT, and HepaRG cells; format: cell-based; details: 100 µM, 24 h; for round cells floating in the culture medium: bright field; for impact on cells' adherence or confluency: compared to control cells
Method: To verify the impact of PCs (RUT, OA and LA) and REs (RUT-O and RUT-L) on the morphology and confluence of H9c2(2-1), HaCaT, and HepaRG cells, a microscopic examination was performed. The cells were observed under bright field illumination and photographed at the end of the 24 h treatment period using Cytation 1 (BioTek Instruments Inc., Winooski, VT, United States). The photographs were processed using the Gen5™ Microplate Data Collection and Analysis Software (BioTek Instruments Inc., Winooski, VT, United States).

[4] = system: H9c2(2-1) cells; format: cell-based, rat; details: 100 µM, 24 h, Hoechst 33342
Method: (§2) The potential toxicity of 100 μM RUT, OA, LA, RUT-O, and RUT-L at nuclear level was tested by applying the Hoechst 33342 staining assay protocol according to the manufacturer’s (Thermo Fisher Scientific, Inc., Waltham, MA, United States) recommendations. In brief, H9c2(2-1), HepaRG, and HaCaT cells were seeded in 12-well plates (10^5 cells/1.5 ml/well) and treated with the test compounds for 24 h. After the stimulation period, the media was removed, and the staining solution diluted 1:2000 in PBS was added (500 µl/well). The plates were incubated for 10 min at room temperature, protected from light. Finally, the staining solution was washed with PBS and the pictures were taken using Cytation 1 (BioTek Instruments Inc., Winooski, VT, United States) and analyzed by the means of Gen5™ Microplate Data Collection and Analysis Software (BioTek Instruments Inc., Winooski, VT, United States). Staurosporine (STP) 5 µM was selected as positive control for apoptosis.

[5] = in vitro; format: cell-based, rat; details: rat
Method: as §1

[6] = system: HaCaT cells; format: cell-based, human; details: 100 µM, 24 h, Hoechst 33342
Method: as §2

[7] = system: HepaRG cells; format: cell-based, human; details: 100 µM, 24 h, Hoechst 33342
Method: as §2

[8] = system: HUVEC endothelial cells; details: ref Bass et al., 2020; cited from earlier work
[9] = system: HaCaT cells; assay: Wound healing (scratch) assay; format: cell-based, human; details: 25 µM, 24 h
Method: (§3) The influence of RUT-O and RUT-L on the migration of cells was assessed by performing the wound healing (scratch) assay. In brief, the cells (10^5 cells/ml/well) were cultured in 24-well plates (Corning Costar), and an automatic scratch was made in each well by using the AutoScratchTM Wound Making Tool provided by BioTek® Instruments Inc. (Winooski, VT, United States). The cells were further treated with the flavonoid esters at the concentration of 25 μM for 24 h, and representative images of the wound area were taken at 0 and 24 h using Cytation 1 (BioTek® Instruments Inc., Winooski, VT, United States). The wound widths were measured using Gen5 TM Microplate Data Collection and Analysis Software (BioTek® Instruments Inc., Winooski, VT, United States). The effects on cell migration were quantified by calculating the wound healing rates (%) using a formula presented in our previous studies ([[…] et al., 2020]).

[10] = system: H9c2(2-1) cells; assay: in vitro; format: cell-based, rat; details: H9c2(2-1), 24 h; for cell viability normalized to control: MTT
Method: as §1

[11] = system: HaCaT cells; design: method as in Deepika et al., 2019; details: ref Deepika et al., 2019; cited from earlier work
[12] = system: HaCaT cells; format: cell-based, human; details: 24 h; for effect on cell viability: 1-100 µM
Method: as §1

[13] = system: H9c2(2-1) cells; assay: Wound healing (scratch) assay; format: cell-based, rat; details: 25 µM, 24 h, control 45.71%
Method: as §3

[14] = system: HepaRG cells; assay: Wound healing (scratch) assay; format: cell-based, human; details: 25 µM, 24 h, control 44.31%
Method: as §3

[15] = system: HepaRG cells; assay: in vitro; format: cell-based, human; details: 100 µM
Method: as §1

[16] = system: reconstructed human epidermis 3D tissues—EpiDerm™ (EPI-212); details: for tissue viability compared to negative control (DPBS-treated inserts) / skin irritation classification (OECD Test Guideline 439, irritant if viability below 50%): 100 µM; for skin irritation classification (OECD Test Guideline 439, irritant if viability below 50%): EpiDerm
Excerpt: The reconstructed human epidermal model—EpiDerm™ (EPI-212, [MatTek Corporation protocol, 2021], Bratislava, Slovakia) (Lot no. 36155) is a multilayered differentiated human epidermis model made of normal human-derived epidermal keratinocytes, validated as test method for the OECD 439 (In vitro skin irritation: reconstructed human epidermis test methods) ([OECD, 2021]). The EpiDerm™ tissues (prepared as inserts) that served as model for the skin irritation test together with the specific culture media (assay medium—EPI-100-NMM), Dulbecco’s phosphate buffered saline (DPBS) (negative control), sodium dodecyl sulphate (SDS) 5% and the MTT kit were provided by the manufacturer (MatTek Corporation, Bratislava, Slovakia).
The in vitro skin irritation test (EPI-212-SIT) was performed according to the manufacturer’s recommendations and to the data from the literature [MatTek Corporation protocol—In vitro EpiDerm Skin Irritation Test (EPI-200-SIT); [Kandarova et al., 2018]]. […] The same protocol was performed for the positive (5% SDS in saline) and negative (sterile DPBS) controls. The tissue viability (%) was calculated according to the formulas specified in the literature ([Pinzaru et al., 2021]).

[17] = lowest concentrations (1 and 10 µM)

| Structure (SMILES) | vascular irritation signs (hemorrhage, lysis, coagulation) in words [2] | round cells floating in the culture medium [3] | impact on cells' adherence or confluency [3] | nuclear morphology changes [4] | nuclear morphology changes [6] | nuclear morphology changes [7] | effect on cell viability [10, 17] | effect on cell viability [12] | wound healing rate [14] | tC = time of coagulation [2] | tH = time of hemorrage [2] | tL = time of lysis [2] | Irritation score (IS) [2] | tissue viability compared to negative control (DPBS-treated inserts) ([16]; EpiDerm inserts) | skin irritation classification (OECD Test Guideline 439, irritant if viability below 50%) [16] | also measured |
| --- | --- | --- | --- | --- | --- | --- | --- | --- | --- | --- | --- | --- | --- | --- | --- | --- |
| CCCCCCCC/C=C\CCCCCCCC(=O)O [OA, oleic acid] | No signs of vascular irritation | several round cells floating in the culture medium | no negative impact | no significant nuclear alterations | no significant nuclear alterations | no significant nuclear alterations | – | – | – | – | – | – | – | – | – | viability at 24 h, 50 µM [1]: 87.9%; viability at 24 h, 100 µM [1]: 76.4%; viability at 24 h, 50 µM [5]: 89.8%; viability at 24 h, 100 µM [5]: 82.9%; doses inducing cytotoxicity in HUVEC endothelial cells [8]: above 200 µM |
| C[C@@H]1O[C@@H](OC[C@H]2O[C@@H](Oc3c(-c4ccc(O)c(O)c4)oc4cc(O)cc(O)c4c3=O)[C@H](O)[C@@H](O)[C@@H]2O)[C@H](O)[C@H](O)[C@H]1O [RUT, Rutin] | No signs of vascular irritation | – | no negative impact | no significant nuclear alterations | no significant nuclear alterations | no significant nuclear alterations | stimulatory effect | not affected | – | – | – | – | – | – | – | effect on wound regeneration [9]: no impact on wound regeneration; effect on cell viability ([10]; highest concentrations (50 and 100 µM)): did not decrease cells viability; IC50, inhibitory effect on HaCaT cells' growth [11]: 60 µg/mL (≈ 98.3 µM); wound healing rate [13]: 37.73% |
| CCCCC/C=C\C/C=C\CCCCCCCC(=O)O[C@@H]1[C@@H](O)[C@@H](O)[C@H](OC[C@H]2O[C@@H](Oc3c(-c4ccc(O)c(O)c4)oc4cc(O)cc(O)c4c3=O)[C@H](O)[C@@H](O)[C@@H]2O)O[C@H]1C [RUT-L, rutin linoleate] | no significant irritant effects | – | no negative impact | No significant changes | No significant changes | No significant changes | stimulatory effect | stimulatory effect at all concentrations | 22.77% | 290 s | 300 s | 295 s | 0.49 | over 100% | non-irritant | cell viability normalized to control [15]: 101.25% |
| CCCCCCCC/C=C\CCCCCCCC(=O)OC1C(C)OC(OCC2OC(Oc3c(-c4ccc(O)c(O)c4)oc4cc(O)cc(O)c4c3=O)C(O)C(O)C2O)C(O)C1O (stereo not drawn) [RUT-O, rutin oleate] | no significant irritant effects | several round cells floating in the culture medium | no negative impact | several apoptotic-like features | nuclear fragmentation and formation of apoptotic bodies | chromatin condensation | – | – | 27.18% | 286 s | 300 s | 291 s | 0.70 | over 100% | non-irritant | cell viability normalized to control ([15]; HepaRG, 24 h, MTT): 83.17%; cell viability normalized to control ([10]; 50 µM): 79.03%; cell viability normalized to control ([10]; 100 µM): 77.53%; cell viability normalized to control ([12]; 100 µM, MTT): 78.32% |
| CCCCCCCCCCCCOS(=O)(=O)[O-].[Na+] [SDS 1%, sodium dodecyl sulphate] | the most obvious signs of vascular irritation | – | – | – | – | – | – | – | – | 15 s | 22 s | 20 s | 19.78 | – | – | tissue viability ([16]; EpiDerm inserts, positive control 5% solution): 10% |
